Counter-ions that a name gives are not always drawn. Like-named read-outs stand apart in the source and are kept apart here.
Legend:
CDK2/Cyclin A = CDK2/Cyclin A (Homo sapiens, UniProt P24941); experiment: Inhibition of CDK2/Cyclin A Retinoblastoma Kinase Activity; type: biochemical; conditions: for Ki: apparent Ki, CDK2/proteolyzed cyclin A, Rb fragment substrate, 25 μM ATP
Outline: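 Human CDK2, baculovirus/insect-cell expressed, complexed with proteolyzed cyclin A (10 nM or 19 nM CDK2) phosphorylates an Rb fragment with 25 μM [32P/33P]ATP at pH 7.4, 30° C, for 60 or 75 minutes under initial-rate conditions. Filter-captured radioactivity is read by phosphorimager; apparent Ki from competitive-inhibition fits.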

[1] = target: human CDK4 and genetically truncated (1-264) cyclin D3 (Homo sapiens, UniProt P11802); experiment: Inhibition of CDK4/Cyclin D Retinoblastoma Kinase Activity; type: biochemical; conditions: for Ki: apparent Ki, CDK4/truncated cyclin D3, Rb fragment substrate, 25 μM ATP
Outline: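 Read-out: 32P/33P incorporation into Rb fragment (386-928) captured on nitrocellulose, phosphorimager. Enzyme 5 nM CDK4/cyclin D3(1-264) from insect cells; ATP 25 μM, pH 7.4, 30 °C, 20 min (60 min for tight binders). Ki from competitive fits.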

HCT-116 cell line = experiment: Inhibition of cell growth, tetrazolium salt (MTT) assay; type: cell-based; conditions: for IC50: Homo sapiens, HCT-116, 120 h, MTT, three to five days, read-out: HCT-116 IC50; for HCT-116 % Inhibition at 0.25 μM: 0.25 μM compound
Outline: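 Growth inhibition by MTT reduction at 540 nm (0.2 mg/mL, 4 h at 37° C, formazan dissolved in DMSO), normalized to cells given only 0.5% v/v DMSO. HCT-116 cultures in McCoy's 5A were dosed 4 h post-plating and kept three to five days at 37° C, 5% CO2.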

[2] = 0.1 μM compound, HCT-116, Table 3
[3] = 0.03 μM compound, Table 4, 0.03 µM
[4] = 0.1 μM compound, HCT-116, Table 4

Sequence of human CDK4 and genetically truncated (1-264) cyclin D3 (P11802 whole entry, the tested form may be a part): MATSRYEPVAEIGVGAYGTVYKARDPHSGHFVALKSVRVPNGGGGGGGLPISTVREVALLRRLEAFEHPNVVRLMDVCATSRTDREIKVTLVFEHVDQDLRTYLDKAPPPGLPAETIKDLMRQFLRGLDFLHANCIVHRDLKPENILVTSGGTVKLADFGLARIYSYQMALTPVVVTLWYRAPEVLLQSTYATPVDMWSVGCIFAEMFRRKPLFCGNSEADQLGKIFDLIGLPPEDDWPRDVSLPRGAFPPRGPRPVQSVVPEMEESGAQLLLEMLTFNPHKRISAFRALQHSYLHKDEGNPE
Sequence of human CDK4 and genetically truncated (1-264) cyclin D3 (P30281 1-264 partner): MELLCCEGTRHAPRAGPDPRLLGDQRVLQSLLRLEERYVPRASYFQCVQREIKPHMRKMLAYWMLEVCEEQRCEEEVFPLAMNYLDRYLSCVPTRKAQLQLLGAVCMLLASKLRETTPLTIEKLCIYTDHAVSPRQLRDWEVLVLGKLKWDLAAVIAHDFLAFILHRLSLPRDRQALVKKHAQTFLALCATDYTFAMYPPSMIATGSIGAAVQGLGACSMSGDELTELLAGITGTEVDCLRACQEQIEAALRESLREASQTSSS

SMILES | Ki (CDK2/Cyclin A) [nM] | Ki [1] [nM] | IC50 (HCT-116 cell line; first HCT-116 column (c4)) [nM] | IC50 (HCT-116 cell line; second HCT-116 column (c5)) [nM] | CDK2 % Inhibition at 0.03 μM (CDK2/Cyclin A; at 0.03 μM) [%] | CDK4 % Inhibition at 0.03 μM ([1]; at 0.03 μM) [%] | HCT-116 % Inhibition at 0.1 μM (HCT-116 cell line; HCT-116 cells, at 0.1 μM) [%] | HCT-116 5 Inhibition at 0.25 μM (HCT-116 cell line; HCT-116 cells) | also measured
CN(C)CCSc1ccc(S(=O)(=O)N2CCC(Nc3nc(N)c(C(=O)c4c(F)cccc4F)s3)CC2)cn1 [Example L1, 1-(4-Amino-2-{1-[6-(2-dimethylamino-ethylsulfanyl)-pyridine-3-sulfonyl]-piperidin-4-ylamino}-thiazol-5-yl)-1-(2,6-difluoro-phenyl)-methanone Dihydrochloride.] | 0.62 | 0.3 | 78 | > 500 |  |  |  |  | 
CC(C)OC(=O)N1CCC(Nc2nc(N)c(C(=O)c3c(F)cccc3F)s2)CC1 [Example R84] |  |  |  |  | 4 | 21 | 0 | 41 | 
COc1cc(C(=O)N2CCC(Nc3nc(N)c(C(=O)c4c(F)cccc4F)s3)CC2)ccc1C [Example D12, 1-[4-Amino-2-{1-[-(3-methoxy-4-methyl-phenyl)-methanoyl]-piperidin-4-ylamino}-thiazol-5-yl)-1-(2,6-difluoro-phenyl)-methanone Trifluoroacetic Acid Salt] | 29 | 14 | 120 | 320 |  |  |  |  | 
Nc1nc(NC2CCN(S(=O)(=O)c3ccc(-c4ncc[nH]4)nc3)CC2)sc1C(=O)c1c(F)cccc1F [Example I1, 1-(4-Amino-2-{1-[6-(1H-imidazol-2-yl)-pyridine-3-sulfonyl]-piperidin-4-ylamino}-thiazol-5-yl)-1-(2,6-difluoro-phenyl)-methanone Hydrochloride] | 0.26 | 0.56 | 300 | 500 |  |  |  |  | 
Nc1nc(NC2CCN(C(=O)C3(c4ccccc4)CCCC3)CC2)sc1C(=O)c1c(F)cccc1F [Example R95] |  |  |  |  | −13 | −27 | 0 | 38 | 
Cc1nnsc1C(=O)N1CCC(Nc2nc(N)c(C(=O)c3c(F)cccc3F)s2)CC1 [Example R70] |  |  |  |  | 21 | 12 | 0 | 44 | 
Nc1nc(NC2CCN(S(=O)(=O)c3c(F)cccc3F)CC2)sc1C(=O)c1c(F)cccc1F [Example P67] |  |  |  |  |  |  |  |  | CDK2 % Inhibition at 0.03 μM (CDK2/Cyclin A; 0.03 μM compound, Table 3): −8%; CDK4 % Inhibition at 0.03 μM ([1]; 0.03 μM compound, Table 3): 22%; HCT-116 % Inhibition at 0.1 μM (HCT-116 cell line; [2]): 9%; HCT-116 % Inhibition at 0.25 μM (HCT-116 cell line; HCT-116, Table 3): 25%
Nc1nc(NC2CCN(C(=O)c3ccccc3)CC2)sc1C(=O)c1c(F)cccc1F [Example R103] |  |  |  |  | 4 | 18 | 0 | 45 | 
Cc1cc(C(=O)N2CCC(Nc3nc(N)c(C(=O)c4c(F)cccc4F)s3)CC2)no1 [Example R64] |  |  |  |  | 9 | 10 | 0 | 42 | 
Cc1ccc(Oc2ncccc2C(=O)N2CCC(Nc3nc(N)c(C(=O)c4c(F)cccc4F)s3)CC2)cc1 [Example R45] |  |  |  |  | 37 | 49 | 2 | 36 | 
Nc1nc(NC2CCN(C(=O)C34CC5CC(CC(C5)C3)C4)CC2)sc1C(=O)c1c(F)cccc1F [Example R54] |  |  |  |  | 21 | 38 | 0 | 39 | 
C[C@@H]1CN(CCc2ccc(S(=O)(=O)N3CCC(Nc4nc(N)c(C(=O)c5c(F)cccc5F)s4)CC3)cn2)C[C@H](C)N1 [Example N8] | 1.1 | 0.32 | 1300 | 5000 |  |  |  |  | 
Nc1nc(NC2CCN(S(=O)(=O)c3ccc(F)cc3)CC2)sc1C(=O)c1c(F)cccc1F [Example P13] |  |  |  |  |  |  |  |  | CDK2 % Inhibition at 0.03 μM (CDK2/Cyclin A; 0.03 μM compound, Table 3): 75%; CDK4 % Inhibition at 0.03 μM ([1]; 0.03 μM compound, Table 3): 77%; HCT-116 % Inhibition at 0.1 μM (HCT-116 cell line; [2]): 19%; HCT-116 % Inhibition at 0.25 μM (HCT-116 cell line; HCT-116, Table 3): 31%
CCCCCCOc1ccc(C(=O)N2CCC(Nc3nc(N)c(C(=O)c4c(F)cccc4F)s3)CC2)cc1 [Example Q31] |  |  |  |  |  |  |  |  | CDK2 % Inhibition at 0.03 μM (CDK2/Cyclin A; [3]): −2%; CDK4 % Inhibition at 0.03 μM [1, 3]: 35%; HCT-116 % Inhibition at 0.1 μM (HCT-116 cell line; [4]): 8%; HCT-116 % Inhibition at 0.25 μM (HCT-116 cell line; HCT-116, Table 4, 0.25 µM): 41%
CCOC(=O)c1ccc(NC(=O)N2CCC(Nc3nc(N)c(C(=O)c4c(F)cccc4F)s3)CC2)cc1 [Example O22] |  |  |  |  |  |  |  |  | CDK2 % Inhibition At 0.03 μM (CDK2/Cyclin A; 0.03 μM compound, Table 2): 34%; CDK4 % Inhibition at 0.03 μM ([1]; 0.03 μM compound, Table 2): 13%; HCT-116 % Inhibition at 0.25 μM (HCT-116 cell line; HCT-116, Table 2): 25%
Nc1nc(NC2CCN(S(=O)(=O)c3ccc(NCC(O)CO)nc3)CC2)sc1C(=O)c1c(F)cccc1F (stereo not shown) [Example G19, 1-(4-Amino-2-{1-[6-(2,3-dihydroxy-propylamino)-pyridine-3-sulfonyl]-piperidin-4-ylamino}-thiazol-5-yl)-1-(2,6-difluoro-phenyl)-methanone] | 2 | 3.4 | 4100 | > 5000 |  |  |  |  | 
Nc1nc(NC2CCN(C(=O)OCc3ccc([N+](=O)[O-])cc3)CC2)sc1C(=O)c1c(F)cccc1F [Example Q85] |  |  |  |  |  |  |  |  | CDK2 % Inhibition at 0.03 μM (CDK2/Cyclin A; 0.03 μM compound, Table 4): 42%; CDK4 % Inhibition at 0.03 μM ([1]; 0.03 μM compound, Table 4): 55%; HCT-116 % Inhibition at 0.1 μM (HCT-116 cell line; [4]): 1%; HCT-116 % Inhibition at 0.25 μM (HCT-116 cell line; HCT-116, Table 4): 31%
Cn1ccnc1SCCCS(=O)(=O)N1CCC(Nc2nc(N)c(C(=O)c3c(F)cccc3F)s2)CC1 [Example K22, 1-(4-Amino-2-{1-[3-(1-methyl-1H-imidazol-2-ylsulfanyl)-propane-1-sulfonyl]-piperidin-4-ylamino}-thiazol-5-yl)-1-(2,6-difluoro-phenyl)-methanone.] | 4.8 | 7.3 | > 500 | > 500 |  |  |  |  | 
Nc1nc(NC2CCN(C(=O)C3CCC3)CC2)sc1C(=O)c1c(F)cccc1F [Example Q56] |  |  |  |  |  |  |  |  | CDK2 % Inhibition at 0.03 μM (CDK2/Cyclin A; 0.03 μM compound, Table 4): 12%; CDK4 % Inhibition at 0.03 μM ([1]; 0.03 μM compound, Table 4): 14%; HCT-116 % Inhibition at 0.1 μM (HCT-116 cell line; [4]): 0%; HCT-116 % Inhibition at 0.25 μM (HCT-116 cell line; HCT-116, Table 4): 35%
COc1ccc(S(=O)(=O)N2CCC(Nc3nc(N)c(C(=O)c4c(F)cccc4F)s3)CC2)cc1 [Example F7, 1-{4-Amino-2-[1-(4-methoxy-benzenesulfonyl)-piperidin-4-ylamino]-thiazol-5-yl}-1-(2,6-difluoro-phenyl)-methanone] | 0.8 | 2.5 | 190 | 460 |  |  |  |  | 
CN1CC[C@H](Oc2ccc(S(=O)(=O)N3CCC(Nc4nc(N)c(C(=O)c5c(F)cccc5F)s4)CC3)cn2)C1 [Example H28, (4-Amino-2-{1-[6-(1-methyl-pyrrolidin-3S-yloxy)-pyridine-3-sulfonyl]-piperidin-4-ylamino}-thiazol-5-yl)-(2,6-difluoro-phenyl)-methanone Hydrochloride] | 0.41 | 1 | 49 | 160 |  |  |  |  | 
COc1ccccc1C(=O)N1CCC(Nc2nc(N)c(C(=O)c3c(F)cccc3F)s2)CC1 [Example R114] |  |  |  |  | 60 | 65 | 0 | 42 | 
Cc1onc(-c2ccccc2)c1C(=O)N1CCC(Nc2nc(N)c(C(=O)c3c(F)cccc3F)s2)CC1 [Example R21] |  |  |  |  | 2 | 38 | 0 | 47 | 
